Reference: PubChem BioAssay AID1963962 (Molecular Pharmacology Branch, DTP, NCI, 2024)

Tested on: 967376-340-R-J2-PDC multicell spheroid viability
Assay: Anticancer human tumor 967376-340-R-J2-PDC patient-derived colon adenocarcinoma cell line growth inhibition [PI3K]
Settings: for viability, T/C: stronger effect = lower value
Text: Combinatorial screen of targeted agents with the PI3K inhibitors inavolisib, alpelisib, duvelisib, and copanlisib in multi-cell type tumor spheroids
A high-throughput screen of multi-cell type tumor spheroids was designed to identify active combinations of targeted small molecules and PI3K pathway inhibitors. Complex spheroids include a stromal component modeled by human endothelial cells (HUVEC) and fibroblasts modeled by human mesenchymal stem cells (MSCs). The concentration ranges selected for each drug and investigational agent were based upon clinically achievable concentrations if the clinical Cmax of the agent was known.
Compounds. The drugs and investigational agents: inavolisib (NSC800729), alpelisib (NSC765974), duvelisib (NSC772469), copanlisib (NSC816437), ipatasertib (NSC767898), afuresertib (NSC778305), talazoparib (NSC767125), sapanisertib (NSC764658), selumetinib (NSC741078), tovorafenib (DAY101, NSC766906), vemurafenib (NSC761431), ravoxertinib (NSC781343), sotorasib (NSC818433), MRTX1133 (NSC 836407), abemaciclib (NSC 768073), palbociclib (NSC758247), venetoclax (NSC 766270), SY5609 (NSC837396), enzalutamide (NSC755605), and darolutamide (NSC825331), were obtained from the National Cancer Institute (NCI) Developmental Therapeutics Program Chemical Repository. The FDA-approved anticancer drug set is available from the NCI Developmental Therapeutics Program. […] The stock solutions were prepared in dimethyl sulfoxide (DMSO, Sigma-Aldrich, St. Louis, MO, cat. D2650) at 800-fold the tested concentration and stored at -70 degrees C prior to their use. All drugs and investigational agents were tested over a range starting from a high concentration at or near the clinical Cmax and decreasing in half-log increments. If the clinical Cmax for an agent had not been determined, the highest concentration tested was 10 microM.
Cell Culture. All cells were maintained in an incubator at 37 degrees C and 5% CO2 with 95% humidity. The PDC lines were cultured according to standard operating procedures established by the NCI PDMR (https://pdmr.cancer.gov/sops/default.htm). All PDCs were thawed and cultured in Matrigel-coated flasks prepared with a working solution of 1X Ham's F-12 nutrient mix, without supplementation (Invitrogen, Waltham, MA, cat. 11765054), 100 U/mL penicillin-streptomycin (Invitrogen, cat. 15140122), and 2.5% Matrigel (Corning Inc., Corning, NY, cat. 354248) for the first three passages. The 354836-022-R-J1-PDC, 475296-252-R-J1-PDC, and 997726-040-R-J2-PDC lines were cultured in 6A media, which includes advanced DMEM/F-12 (Thermo Fisher Scientific, cat. 12634028), 10 mM HEPES (Thermo Fisher Scientific, cat. 15630080), 1X GlutaMAX supplement (Thermo Fisher Scientific, cat. 35050061), 0.1 mg/mL primocin (InvivoGen, San Diego, CA, cat. ant-pm-2), 10% defined fetal bovine serum, heat inactivated (HyClone Laboratories Inc., Logan, UT, cat. SH30070.03HI), 50% L-WRN conditioned media (ATCC, cat. CRL-3276), 1.25 mM N-Acetyl-L-cysteine (Sigma-Aldrich, cat. A9165), 10 mM nicotinamide (Sigma-Aldrich, cat. N0636), 1X B-27 supplement (Thermo Fisher Scientific, cat. 17504044), 1X N-2 supplement (Thermo Fisher Scientific, cat. 17502048), and 10 microM Y-27632 dihydrochloride (Tocris Bioscience, Bristol, United Kingdom, cat. 1254). The 624824-186-R-J2-PDC line was cultured in 6C/Colon 1B media, which includes all 6A media components plus 50 ng/mL human EGF recombinant protein (Thermo Fisher Scientific, cat. PHG0311). […]

[1] = curve of first compound, second compound 0.0316 µM
[2] = curve of first compound, second compound 0.1 µM
[3] = curve of first compound, second compound 0.316 µM
[4] = curve of first compound, second compound 1 µM
[5] = second compound 0.0316 µM, first compound 0.0316 µM
[6] = second compound 0.0316 µM, first compound 0.1 µM
[7] = second compound 0.0316 µM, first compound 0.316 µM
[8] = second compound 0.0316 µM, first compound 1 µM
[9] = second compound 0.0316 µM, first compound 3.16 µM
[10] = second compound 0.0316 µM, first compound 10 µM
[11] = second compound 0.1 µM, first compound 0.0316 µM
[12] = second compound 0.1 µM, first compound 0.1 µM
[13] = second compound 0.1 µM, first compound 0.316 µM
[14] = second compound 0.1 µM, first compound 1 µM
[15] = second compound 0.1 µM, first compound 3.16 µM
[16] = second compound 0.1 µM, first compound 10 µM
[17] = second compound 0.316 µM, first compound 0.0316 µM
[18] = second compound 0.316 µM, first compound 0.1 µM
[19] = second compound 0.316 µM, first compound 0.316 µM
[20] = second compound 0.316 µM, first compound 1 µM
[21] = second compound 0.316 µM, first compound 3.16 µM
[22] = second compound 0.316 µM, first compound 10 µM
[23] = second compound 1 µM, first compound 0.0316 µM
[24] = second compound 1 µM, first compound 0.1 µM
[25] = second compound 1 µM, first compound 0.316 µM
[26] = second compound 1 µM, first compound 1 µM
[27] = second compound 1 µM, first compound 3.16 µM
[28] = second compound 1 µM, first compound 10 µM
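Also: spheroids exposed to agents for 7 days before read-out.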
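For viability, T/C in this document: luminescence used as surrogate of cell viability.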

Which results are given for `C#Cc1c(F)ccc2cc(O)cc(-c3ncc4c(N5CC6CCC(C5)N6)nc(OCC56CCCN5CC(F)C6)nc4c3F)c12` (stereo not given) + CC(Nc1ncnc2nc[nH]c12)c1cc2cccc(Cl)c2c(=O)n1-c1ccccc1?
IC50 [1]: > 10 µM; IC50 [2]: > 10 µM; IC50 [3]: > 10 µM; IC50 [4]: > 10 µM; IC50 (curve of first compound, second compound 3.16 µM): > 10 µM; IC50 (curve of first compound, second compound 10 µM): > 10 µM; viability, T/C [5]: 103%; viability, T/C [6]: 113%; viability, T/C [7]: 94.2%; viability, T/C [8]: 85.8%; viability, T/C [9]: 85.5%; viability, T/C [10]: 53.8%; viability, T/C [11]: 99.8%; viability, T/C [12]: 110%; viability, T/C [13]: 80.5%; viability, T/C [14]: 97.5%; viability, T/C [15]: 77%; viability, T/C [16]: 88.9%; viability, T/C [17]: 104%; viability, T/C [18]: 97.2%; viability, T/C [19]: 99.7%; viability, T/C [20]: 90.6%; viability, T/C [21]: 99.5%; viability, T/C [22]: 78.8%; viability, T/C [23]: 96.5%; viability, T/C [24]: 110%; viability, T/C [25]: 109%; viability, T/C [26]: 93%; viability, T/C [27]: 72.8%; viability, T/C [28]: 70.8%; viability, T/C (second compound 3.16 µM, first compound 0.0316 µM): 106%; viability, T/C (second compound 3.16 µM, first compound 0.1 µM): 92.4%; viability, T/C (second compound 3.16 µM, first compound 0.316 µM): 94.6%; viability, T/C (second compound 3.16 µM, first compound 1 µM): 71.2%; viability, T/C (second compound 3.16 µM, first compound 3.16 µM): 78.3%; viability, T/C (second compound 3.16 µM, first compound 10 µM): 71.8%; viability, T/C (second compound 10 µM, first compound 0.0316 µM): 84.1%; viability, T/C (second compound 10 µM, first compound 0.1 µM): 76.8%; viability, T/C (second compound 10 µM, first compound 0.316 µM): 78.8%; viability, T/C (second compound 10 µM, first compound 1 µM): 61.6%; viability, T/C (second compound 10 µM, first compound 3.16 µM): 59.5%; viability, T/C (second compound 10 µM, first compound 10 µM): 61.5%

What does the source list for `CC1(C)CCC(CN2CCN(c3ccc(C(=O)NS(=O)(=O)c4ccc(NCC5CCOCC5)c([N+](=O)[O-])c4)c(Oc4cnc5[nH]ccc5c4)c3)CC2)=C(c2ccc(Cl)cc2)C1`?
viability, T/C (compound 0.0316 µM): 99.2% [middle of 4 runs]; viability, T/C (compound 0.1 µM): 94.1% [middle of 4 runs]; viability, T/C (compound 0.316 µM): 88.6% [middle of 4 runs]; viability, T/C (compound 1 µM): 88.1% [middle of 4 runs]; viability, T/C (compound 3.16 µM): 89.6% [middle of 4 runs]; IC50 (curve of compound): > 10 µM

For `CCCS(=O)(=O)Nc1ccc(F)c(C(=O)c2c[nH]c3ncc(-c4ccc(Cl)cc4)cc23)c1F` + COc1c(OCCCN2CCOCC2)ccc2c3n(c(=NC(=O)c4cnc(N)nc4)nc12)CCN3, which IC50 (curve of first compound, second compound 0.00316 µM) is on record?
Its IC50 is greater than 10 µM.

And the IC50 (curve of first compound, second compound 0.01 µM)?
The IC50 was greater than 10 µM.

And the IC50 [1]?
Its IC50 is greater than 10 µM.

What about the IC50 [2] of the same compound?
The IC50 was greater than 10 µM.

And the IC50 [3]?
Its IC50 is less than 0.0316 µM.

And the IC50 [4]?
Its IC50 is less than 0.0316 µM.

And the viability, T/C (second compound 0.00316 µM, first compound 0.0316 µM)?
The viability, T/C was 94.8%.

And the viability, T/C (second compound 0.00316 µM, first compound 0.1 µM)?
Its viability, T/C is 94.7%.

And the viability, T/C (second compound 0.00316 µM, first compound 0.316 µM)?
Its viability, T/C is 82.8%.

And the viability, T/C (second compound 0.00316 µM, first compound 1 µM)?
Its viability, T/C is 101%.

What about the viability, T/C (second compound 0.00316 µM, first compound 3.16 µM) of the same compound?
Its viability, T/C is 74.3%.

And the viability, T/C (second compound 0.00316 µM, first compound 10 µM)?
Its viability, T/C is 59.6%.

What about the viability, T/C (second compound 0.01 µM, first compound 0.0316 µM) of the same compound?
The viability, T/C was 104%.

What about the viability, T/C (second compound 0.01 µM, first compound 0.1 µM) of the same compound?
The viability, T/C was 78.9%.

And the viability, T/C (second compound 0.01 µM, first compound 0.316 µM)?
Its viability, T/C is 81.8%.

And the viability, T/C (second compound 0.01 µM, first compound 1 µM)?
The viability, T/C was 73.6%.

What about the viability, T/C (second compound 0.01 µM, first compound 3.16 µM) of the same compound?
The viability, T/C was 90%.

And the viability, T/C (second compound 0.01 µM, first compound 10 µM)?
The viability, T/C was 61.8%.

What about the viability, T/C [5] of the same compound?
Its viability, T/C is 68.1%.

What about the viability, T/C [6] of the same compound?
Its viability, T/C is 63.4%.

And the viability, T/C [7]?
The viability, T/C was 73.8%.

What about the viability, T/C [8] of the same compound?
The viability, T/C was 79%.

And the viability, T/C [9]?
The viability, T/C was 69.7%.

What about the viability, T/C [10] of the same compound?
The viability, T/C was 69.1%.

What about the viability, T/C [11] of the same compound?
Its viability, T/C is 63.2%.

And the viability, T/C [12]?
The viability, T/C was 58.5%.

What about the viability, T/C [13] of the same compound?
The viability, T/C was 77%.

And the viability, T/C [14]?
The viability, T/C was 51.1%.

And the viability, T/C [15]?
The viability, T/C was 63%.

What about the viability, T/C [16] of the same compound?
The viability, T/C was 54%.

What about the viability, T/C [17] of the same compound?
Its viability, T/C is 39.4%.

What about the viability, T/C [18] of the same compound?
Its viability, T/C is 36.5%.

What about the viability, T/C [19] of the same compound?
The viability, T/C was 57.1%.

And the viability, T/C [20]?
Its viability, T/C is 34.6%.

What about the viability, T/C [21] of the same compound?
Its viability, T/C is 68.1%.

What about the viability, T/C [22] of the same compound?
Its viability, T/C is 58.8%.

And the viability, T/C [23]?
Its viability, T/C is 31.6%.

What about the viability, T/C [24] of the same compound?
The viability, T/C was 41.6%.

And the viability, T/C [25]?
The viability, T/C was 25.8%.

What about the viability, T/C [26] of the same compound?
Its viability, T/C is 46.1%.

What about the viability, T/C [27] of the same compound?
Its viability, T/C is 41%.

And the viability, T/C [28]?
The viability, T/C was 34.8%.
